Reference: patent publication US6605469B1, “Nucleic acid molecule encoding a cytochrome P-450 hydroxylase in brassinosteroid biosynthesis in plants” (Korea Kumho Petrochemical Co., Ltd., priority 2000, dated 2003)

Columns and labels:
[1] = test system: anti-sense pra2 transgenic plants; experiment: Complementation of dark-grown anti-sense pra2 transgenic plants with phytohormones and BR intermediates (hypocotyl length); assay type: in vivo, Nicotiana tabacum; conditions: for stimulatory effect on hypocotyls as % of the BL effect / rescue of the dwarfish hypocotyls in BR feeding experiment: anti-sense pra2 transgenic plants grown 5 days in complete darkness; for stimulatory effect on hypocotyls as % of the BL effect: 6-OHCS 10^-8 M, 6-deoxoCS 10^-8 M; for rescue of the dwarfish hypocotyls in BR feeding experiment: CS 10^-8 M
Description: Seeds of Nicotiana tabacum (Petit Havana SR1) were germinated and grown in sterile condition at 25° C. with a 16-hour photoperiod. The Arabidopsis thaliana ecotype Columbia (Col-0) was germinated and grown on 0.5×Murashige and Skoog medium containing 1% agar and Suc. All Arabidopsis cultures were maintained in a controlled environment culture room at 22° C. with the humidity of 70% and the photoperiod of 12 hours. Feeding experiments were also performed in the same culture conditions.
Plant growth regulators tested were BR, GA, auxin, cytokinine, abscisic acid, and salicylic acid. The BR hormones included the most oxidized brassinolide (BL, 10^−8 M) and various intermediates, such as campestanol (CN, 10^−6 M), 6-oxocampestanol (6-oxoCN, 10^−6 M), 6-deoxocathasterone (6-deoxoCT, 10^−6 M), cathasterone (CT, 10^−6 M), 6-deoxoteasterone (6-deoxoTE, 10^−6 M), teasterone (TE, 10^−6 M), 6-deoxotyphasterol (6-deoxoTY, 10^−7 M), typhasterol (TY, 10^−7 M), 6-deoxocastasterone (6-deoxoCS, 10^−8 M), 6α-hydroxycastasterone (6-OHCS, 10^−8 M), and castasterone (CS, 10^−8 M). Each BR intermediates were used at the concentrations as indicated in parentheses. […] Plants were germinated and grown in the presence of each BR intermediate for 4-7 days either in the light or in complete darkness. Hypocotyl lengths of 30-50 plants in each treatment were measured and averaged.

[2] = test system: DDWF1; experiment: DDWF1 activity assay with [4-14C]testosterone, TLC analysis; assay type: biochemical, pea; conditions: N-terminal truncated recombinant DDWF1
Description: Forty μl of the [4-^14C]testosterone (Amersham-Pharmacia, Cat. No. CFA129, 193 μCi/mg) was aliquoted, and the solvent was evaporated under gentle stream of N2 gas. Yeast microsomal fractions were prepared as described (Pompon et al., 1996). Thirty μg of microsomal fraction, 5 μg of Pra2 protein, and various amounts of the recombinant DDWF1 were used for each reaction, each with 175 μl of the reaction buffer (1M HEPES, pH 7.4, 0.1 mM EDTA, 0.5 mM GTP, 10 mM MgCl2). The mixture was transferred to the tube containing the lyophilized testosterone and incubated for 10 min at 37° C. Twenty-five μl of NADPH solution, prepared in the same reaction buffer, was then added to the mixture to a final concentration of 1 mM. The total mixture was further incubated for 30 min at 37° C. and terminated by adding 1 ml of ethyl acetate and vortexing for 30 sec. After centrifugation for 4 min at 15000×g, the upper layer was recovered and evaporated in chemical hood overnight. The dry pellet was dissolved in 20 μl of ethyl acetate, spotted on TLC on Silicagel 60 F254 (20×20 cm, Merck, Darmstadt, Germany), and developed in dichloromethane/acetone (4:1 by volume) and then in chloroform/ethyl acetate/ethanol (4:1:0.7 by volume) as described (Waxman, 1991).

[3] = test system: DDWF1; experiment: Substrate specificity of recombinant DDWF1 with BR intermediates, HPLC analysis; assay type: biochemical, pea; conditions: reaction mixtures analyzed on HPLC
Description: For HPLC analysis, BR intermediates were incubated with the DDWF1 as with testosterone, and the mixture was analyzed on the Waters 626 LC System and Photodiode Array Detector (Waters, Milford, Mass.). The reverse-phase Supelcosil LC-18 (250×4.6 mm, Supelco, Pa., USA) was used at a flow rate of 2 ml/min. The solvents used were 45% acetonitrile for the first 20 min, a gradient of 45% to 100% for the next 20 min, and pure acetonitrile for the last 10 min.

[4] = molecular target: wild type Pra2-GST fusion protein [GST: P08515]
[5] = molecular target: Q79L Pra2-GST fusion protein (constitutively active form) [GST: P08515]
[6] = molecular target: T34N Pra2-GST fusion protein (dominant negative form) [GST: P08515]

CC(C)[C@H](C)[C@@H](O)[C@H](O)[C@@H](C)[C@H]1CC[C@H]2[C@@H]3C[C@H](O)[C@H]4C[C@H](O)[C@H](O)C[C@]4(C)[C@H]3CC[C@]12C [6-OHCS, 6α-hydroxycastasterone]
stimulatory effect on hypocotyls as % of the BL effect [1]: about 50%

CC(C)[C@H](C)[C@@H](O)[C@H](O)[C@@H](C)[C@H]1CC[C@H]2[C@@H]3CC[C@H]4C[C@H](O)[C@H](O)C[C@]4(C)[C@H]3CC[C@]12C [6-deoxoCS, 6-deoxocastasterone]
stimulatory effect on hypocotyls as % of the BL effect [1]: ~60%

gibberellins [GA]
stimulatory effect on hypocotyls relative to that by BL ([1]; anti-sense pra2 transgenic tobacco grown in the dark, phytohormones at physiological concentrations): 20-30%

C[C@]12CC[C@H]3[C@@H](CCC4=CC(=O)CC[C@@]43C)[C@@H]1CC[C@@H]2O [Testosterone]
substrate for DDWF1 [2]: not the substrate

CC(C)[C@H](C)[C@@H](O)[C@H](O)[C@@H](C)[C@H]1CC[C@H]2[C@@H]3COC(=O)[C@H]4C[C@H](O)[C@H](O)C[C@]4(C)[C@H]3CC[C@]12C [BL, brassinolide]
rescue of the dwarfish hypocotyls in BR feeding experiment ([1]; BL 10^-8 M): completely rescued
rescue of the dark-specific dwarfish hypocotyls ([1]; anti-sense pra2 transgenic tobacco grown in the dark, phytohormones at physiological concentrations, BL 10^-8 M): completely rescued
growth kinetics of transgenic versus control seedlings in the presence of BL ([1]; dark-grown seedlings, hypocotyl length over time, FIG. 4C): became similar
BL effect on transgenic plants grown in the light ([1]; transgenic plants grown in the light): No BL effects

CC(C)[C@H](C)[C@@H](O)[C@H](O)[C@@H](C)[C@H]1CC[C@H]2[C@@H]3CC(=O)[C@H]4C[C@H](O)[C@H](O)C[C@]4(C)[C@H]3CC[C@]12C [CS, castasterone]
conversion by recombinant DDWF1 (substrate specificity) [3]: not the substrate
rescue of the dwarfish hypocotyls in BR feeding experiment ([1]; BL 10^-8 M): completely rescued

CC(C)[C@H](C)[C@@H](O)[C@H](O)[C@@H](C)[C@H]1CC[C@H]2[C@@H]3CC(=O)[C@H]4C[C@H](O)CC[C@]4(C)[C@H]3CC[C@]12C [TY, typhasterol]
conversion by recombinant DDWF1 (substrate specificity) [3]: converted to CS

B1: recombinant N-terminal truncated DDWF1, soluble form expressed in E. coli (protein)
chain: MALQVLTLPSWVTLFTTFAILLLFSRRLRRRQYNLPPGPKPWPIIGNFNLIGTLPHQSLHGLTQKYGPIMHLWFGSKRVVVGSTVEMAKAFLKTHDATLAGRPKFSAGKYTTYNYSDITWSQYGPYWRQARRMCLLELFSAKRLESYEYIRKQELHVFLHELFDSRNKTILLKDHLSSLSLNVISRMVLGRKYLEKVENSIISPDEFKNMLDELFLLNGILNIGDFIPWIHFLDFQGYVKRMKVLSKKFDGFMEHVLEEHIERRKGVKDYVAKDMVDVLLQLAEDPDLEVKLERHGVKAFTQDLIAGGTESSAVTVEWAISELIRKPEIFKKATEELDRVIGRERWVEEKDIANLPYVYAIAKETMRLHPVAPMLVPREAREDCNINGYDIPKGSLILVNTWTIARDSNVWDNPNEFMPERFLGKDIDVKGHDYELLPFGAGRRMCPGYPLGIKVIQSSLANLLHGFNWRLSDDVKKEDLNMEEIFGLSTPKKIHPG
conversion efficiency (DDWF1 hydroxylase activity on a testosterone intermediate, TLC) [4]: the conversion efficiency was slightly higher with the wild type and Q79L than with the T34N
conversion efficiency (DDWF1 hydroxylase activity on a testosterone intermediate, TLC) [5]: the conversion efficiency was slightly higher with the wild type and Q79L than with the T34N
conversion efficiency (DDWF1 hydroxylase activity on a testosterone intermediate, TLC) [6]: the conversion efficiency was slightly higher with the wild type and Q79L than with the T34N
